Measurements: US7153993B2, “Process for making polymorphic form A of 4-[6-acetyl-3-[3-(4-acetyl-3-hydroxy-2-propylphenylthio)propoxy]-2-propylphenoxy]butyric acid” (Medicinova, Inc., priority 2003, dated 2006)
In brackets after ≈: the same amount, converted by molar mass.

Key:
[1] = Oral activity for treatment of asthma and allergic diseases; format: in vivo
[2] = Solubility of crystalline polymorphs in ether; format: physicochemical
Description: After re-crystallization with individual solvents, compound (1) was subjected to powder X-ray diffractometry, thermal analysis and determination of solubility in ether; thus an exploratory evaluation of the crystalline polymorphism was made.

[3] = Solubility of compound (1) in ethanol/water (2:1); format: physicochemical; details: stirred one hour
Experimental: Samples of compound (1) (5 g) were suspended in ethanol/water (2:1, 100 mL) and stirred for one hour at temperatures of 22° C., 30° C., and 40° C., respectively. The suspensions were filtered and the solids dried in a vacuum oven at room temperature overnight to give the insoluble material. The solubilities were calculated by subtractive means based on recovered material.

CCCc1c(SCCCOc2ccc(C(C)=O)c(OCCCC(=O)O)c2CCC)ccc(C(C)=O)c1O [Compound (1), 4-[6-acetyl-3-[3-(4-acetyl-3-hydroxy-2-propylphenylthio)propoxy]-2-propylphenoxy]butyric acid]
oral activity for treatment of asthma and allergic diseases [1]: orally active

CCCc1c(SCCCOc2ccc(C(C)=O)c(OCCCC(=O)O)c2CCC)ccc(C(C)=O)c1O [Form I, 4-[6-acetyl-3-[3-(4-acetyl-3-hydroxy-2-propylphenylthio)propoxy]-2-propylphenoxy]butyric acid]
Solubility in ether ([2]; ether, listed as I): 36.7 mg/mL (≈ 69.2 mM)

CCCc1c(SCCCOc2ccc(C(C)=O)c(OCCCC(=O)O)c2CCC)ccc(C(C)=O)c1O [Form II, 4-[6-acetyl-3-[3-(4-acetyl-3-hydroxy-2-propylphenylthio)propoxy]-2-propylphenoxy]butyric acid]
solubility ([2]; ether, organic solvent or mixture): 40.5 mg/mL (≈ 76.3 mM)

CCCc1c(SCCCOc2ccc(C(C)=O)c(OCCCC(=O)O)c2CCC)ccc(C(C)=O)c1O [Form III, 4-[6-acetyl-3-[3-(4-acetyl-3-hydroxy-2-propylphenylthio)propoxy]-2-propylphenoxy]butyric acid]
Solubility in ether ([2]; ether, listed as III): 35.3 mg/mL (≈ 66.5 mM)

CCCc1c(SCCCOc2ccc(C(C)=O)c(OCCCC(=O)O)c2CCC)ccc(C(C)=O)c1O [Form IV, 4-[6-acetyl-3-[3-(4-acetyl-3-hydroxy-2-propylphenylthio)propoxy]-2-propylphenoxy]butyric acid]
Solubility in ether ([2]; ether, listed as IV): 45.8 mg/mL (≈ 86.3 mM)

CCCc1c(SCCCOc2ccc(C(C)=O)c(OCCCC(=O)O)c2CCC)ccc(C(C)=O)c1O [Form V, 4-[6-acetyl-3-[3-(4-acetyl-3-hydroxy-2-propylphenylthio)propoxy]-2-propylphenoxy]butyric acid]
Solubility in ether ([2]; ether, listed as V): 47.6 mg/mL (≈ 89.7 mM)
solubility compared to the other polymorphs ([2]; qualitative statement, solvent not stated): superior to the other polymorphs
Solubility in ethanol/water (2:1) ([3]; 30° C., listed as V (form A)): 15.7 mg/mL (≈ 29.6 mM)
Solubility in ethanol/water (2:1) ([3]; 40° C., listed as V (form A)): 46 mg/mL (≈ 86.7 mM)
solubility at 1 h ([3]; ethanol/water (2:1), 22 °C, organic solvent or mixture, thermodynamic from solid, 22° C.): 6.7 mg/mL (≈ 12.6 mM)

CCCc1c(SCCCOc2ccc(C(C)=O)c(OCCCC(=O)O)c2CCC)ccc(C(C)=O)c1O [undesired monoclinic polymorph, 4-[6-acetyl-3-[3-(4-acetyl-3-hydroxy-2-propylphenylthio)propoxy]-2-propylphenoxy]butyric acid]
Solubility in ethanol/water (2:1) ([3]; 22° C.): 3.4 mg/mL (≈ 6.41 mM)
Solubility in ethanol/water (2:1) ([3]; 30° C.): 6.1 mg/mL (≈ 11.5 mM)
Solubility in ethanol/water (2:1) ([3]; 40° C.): 17.2 mg/mL (≈ 32.4 mM)
